Test results taken from the supplement of paper PMC10307832.

How the values were obtained:
Assay in all cases: relative viability (nuclei count vs DMSO), 5 days (fraction); higher = more cells survive
Gemcitabine + Tozasertib = compound: Nc1ccn([C@@H]2O[C@H](CO)[C@@H](O)C2(F)F)c(=O)n1 [Gemcitabine] + Cc1cc(Nc2cc(N3CCN(C)CC3)nc(Sc3ccc(NC(=O)C4CC4)cc3)n2)n[nH]1 [Tozasertib] (partner 0.1 µM)
How it was run: (§1)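 Medians of duplicate plates are given as relative viability. That measure is the nuclei count in treated wells divided by the count in vehicle wells. Counts were taken on 4× images of lung cancer cell lines in 1536-well plates, 5 days after pin-tool dosing the day after seeding with one drug alone or a fixed anchor-drug dose plus five library-drug doses (not always all listed) in √10 steps.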

Gemcitabine + Foretinib = compound: Nc1ccn([C@@H]2O[C@H](CO)[C@@H](O)C2(F)F)c(=O)n1 [Gemcitabine] + COc1cc2c(Oc3ccc(NC(=O)C4(C(=O)Nc5ccc(F)cc5)CC4)cc3F)ccnc2cc1OCCCN1CCOCC1 [Foretinib] (partner 0.25 µM)
How it was run: as §1

Gemcitabine + AZD7762 = compound: Nc1ccn([C@@H]2O[C@H](CO)[C@@H](O)C2(F)F)c(=O)n1 [Gemcitabine] + NC(=O)Nc1cc(-c2cccc(F)c2)sc1C(=O)N[C@H]1CCCNC1 [AZD7762] (partner 0.2 µM)
How it was run: as §1

Gemcitabine + Luminespib = compound: Nc1ccn([C@@H]2O[C@H](CO)[C@@H](O)C2(F)F)c(=O)n1 [Gemcitabine] + CCNC(=O)c1noc(-c2cc(C(C)C)c(O)cc2O)c1-c1ccc(CN2CCOCC2)cc1 [Luminespib] (partner 0.01 µM)
How it was run: as §1

Cell Line | relative viability (Gemcitabine + Tozasertib; first compound 0.001 µM) | relative viability (Gemcitabine + Tozasertib; first compound 0.003162 µM) | relative viability (Gemcitabine + Tozasertib; first compound 0.01 µM) | relative viability (Gemcitabine + Tozasertib; first compound 0.03162 µM) | relative viability (Gemcitabine + Tozasertib; first compound 0.1 µM) | relative viability (Gemcitabine + Foretinib; first compound 0.001 µM) | relative viability (Gemcitabine + Foretinib; first compound 0.003162 µM) | relative viability (Gemcitabine + Foretinib; first compound 0.01 µM) | relative viability (Gemcitabine + Foretinib; first compound 0.03162 µM) | relative viability (Gemcitabine + Foretinib; first compound 0.1 µM) | relative viability (Gemcitabine + AZD7762; first compound 0.001 µM) | relative viability (Gemcitabine + AZD7762; first compound 0.003162 µM) | relative viability (Gemcitabine + AZD7762; first compound 0.01 µM) | relative viability (Gemcitabine + AZD7762; first compound 0.03162 µM) | relative viability (Gemcitabine + AZD7762; first compound 0.1 µM) | relative viability (Gemcitabine + Luminespib; first compound 0.001 µM) | relative viability (Gemcitabine + Luminespib; first compound 0.003162 µM) | relative viability (Gemcitabine + Luminespib; first compound 0.01 µM) | relative viability (Gemcitabine + Luminespib; first compound 0.03162 µM) | relative viability (Gemcitabine + Luminespib; first compound 0.1 µM)
LC-2-ad | 0.497 | 0.407 | 0.379 | 0.191 | 0.2 | 0.943 | 0.829 | 0.712 | 0.206 | 0.158 | 0.86 | 0.852 | 0.25 | 0.185 | 0.18 | 1.15 | 0.885 | 0.832 | 0.258 | 0.219
LCLC-97TM1 | 0.253 | 0.244 | 0.156 | 0.123 | 0.134 | 0.886 | 0.832 | 0.597 | 0.136 | 0.118 | 0.105 | 0.0523 | 0.0434 | 0.0523 | 0.0703 | 0.813 | 0.86 | 0.334 | 0.202 | 0.129
LCLC-103H | 0.491 | 0.399 | 0.395 | 0.176 | 0.139 | 0.78 | 0.853 | 0.663 | 0.348 | 0.233 | 0.788 | 0.761 | 0.66 | 0.24 | 0.215 | 0.956 | 1.01 | 0.845 | 0.314 | 0.183
LK-2 | 0.162 | 0.157 | 0.21 | 0.183 | 0.165 | 1.16 | 1.13 | 0.808 | 0.276 | 0.18 | 0.455 | 0.251 | 0.0955 | 0.105 | 0.0964 | 0.186 | 0.245 | 0.173 | 0.178 | 0.164
LOU-NH91 | 0.699 | 0.578 | 0.415 | 0.211 | 0.146 | 0.965 | 0.69 | 0.591 | 0.332 | 0.209 | 0.762 | 0.603 | 0.395 | 0.288 | 0.292 | 0.322 | 0.322 | 0.339 | 0.182 | 0.24
LU99A | 0.26 | 0.322 | 0.294 | 0.327 | 0.265 | 0.856 | 0.791 | 0.858 | 0.819 | 0.812 | 0.437 | 0.41 | 0.332 | 0.367 | 0.299 | 0.238 | 0.306 | 0.233 | 0.232 | 0.266
LXF-289 | 0.254 | 0.199 | 0.111 | 0.0735 | 0.0697 | 0.974 | 0.966 | 0.803 | 0.106 | 0.107 | 1.1 | 0.767 | 0.0873 | 0.0797 | 0.088 | 0.627 | 0.706 | 0.479 | 0.106 | 0.112
NCI-H23 | 0.688 | 0.225 | 0.114 | 0.129 | 0.114 | 0.751 | 0.441 | 0.178 | 0.163 | 0.131 | 0.154 | 0.134 | 0.0996 | 0.112 | 0.118 | 0.214 | 0.212 | 0.192 | 0.175 | 0.217
NCI-H322M | 0.459 | 0.407 | 0.288 | 0.316 | 0.283 | 0.985 | 0.383 | 0.289 | 0.272 | 0.29 | 0.458 | 0.382 | 0.356 | 0.423 | 0.419 | 0.73 | 0.445 | 0.334 | 0.36 | 0.344
NCI-H358 | 0.086 | 0.081 | 0.0836 | 0.081 | 0.0743 | 0.729 | 0.168 | 0.0883 | 0.0934 | 0.0705 | 0.201 | 0.245 | 0.16 | 0.23 | 0.126 | 0.778 | 0.294 | 0.126 | 0.121 | 0.114
NCI-H441 | 0.569 | 0.394 | 0.25 | 0.196 | 0.197 | 1.2 | 0.711 | 0.421 | 0.21 | 0.211 | 0.603 | 0.134 | 0.11 | 0.165 | 0.128 | 0.343 | 0.332 | 0.198 | 0.189 | 0.177
NCI-H460 | 0.535 | – | 0.299 | 0.0246 | 0.0096 | 0.935 | 1.01 | 0.832 | 0.0311 | 0.0132 | 0.831 | 0.48 | 0.0469 | 0.026 | 0.0247 | 0.0273 | 0.0507 | 0.0367 | 0.0148 | 0.014
NCI-H596 | 0.922 | 0.589 | 0.391 | 0.306 | 0.223 | 0.635 | 0.706 | 0.287 | 0.196 | 0.309 | 1.24 | 0.717 | 0.275 | 0.319 | 0.235 | 1.23 | 0.949 | 0.323 | 0.31 | 0.305
NCI-H647 | 0.395 | 0.098 | 0.0474 | 0.0387 | 0.0371 | 1.06 | 0.279 | 0.0991 | 0.0846 | 0.0592 | 0.098 | 0.0427 | 0.0235 | 0.0216 | 0.0238 | 0.166 | 0.118 | 0.0907 | 0.0871 | 0.0761
NCI-H650 | 0.676 | 0.384 | 0.193 | 0.143 | 0.15 | 0.998 | 0.648 | 0.197 | 0.175 | 0.175 | 0.359 | 0.172 | 0.204 | 0.186 | 0.161 | 0.753 | 0.522 | 0.185 | 0.16 | 0.155
NCI-H727 | 0.571 | 0.443 | 0.352 | 0.431 | 0.321 | 0.815 | 0.71 | 0.376 | 0.363 | 0.276 | 0.545 | 0.45 | 0.389 | 0.311 | 0.403 | 0.312 | 0.288 | 0.352 | 0.207 | 0.342
